# Measured values from US10398692B2, “Terconazole composition and method” (Curatek Pharmaceuticals Holding, Inc., priority 2006, dated 2019).
# Key:
# [1] = cited from earlier work
# [2] = Solubility of terconazole in water at adjusted pH (Table 1A); assay type: physicochemical; conditions: for solubility: water
# Text: In a related experiment, the solubility of terconazole in water was increased to about 2.9 percent by weight using acetic acid at pH of about 5.
smiles,measurement,setting,value
"CC(C)N1CCN(c2ccc(OCC3COC(Cn4cncn4)(c4ccc(Cl)cc4Cl)O3)cc2)CC1 (stereo not drawn) [Terconazole, cis-1-[p[[2-(2,4-dichlorophenyl)-2-(1H-1,2,4-triazol-1-ylmethyl)-1,3-dioxolan-4-yl]methoxy]phenyl]-4-isopropylpiperazine]",solubility in water,[1],about 0.007 percent by weight
same,solubility,"[2]; aqueous buffer, pH 4.23 adjusted with HCl",3400 µg/mL
same,solubility of terconazole in water,[2]; using acetic acid at pH of about 5,about 2.9 percent by weight
same,solubility,"[2]; aqueous buffer, pH 4.99 adjusted with acetic acid",29400 µg/mL
same,solubility,"[2]; pH 7.1, pH not adjusted",70 µg/mL
